{"source": "paper PMC12505664", "about": "“Enflicoxib for the long-term management of canine osteoarthritis—External validation of a population pharmacokinetic model in dogs with osteoarthritis” (Frontiers in Veterinary Science, 2025)", "key": {"[1]": {"assay": "Plasma levels of enflicoxib and pyrazol metabolite in the 6-month field clinical study (HPLC-MS/MS)", "type": "in vivo, client-owned dogs with OA", "conditions": "for Mean plasma level: oral 8 mg/kg then 4 mg/kg weekly", "description": "A prospective, multisite, blinded, randomized, placebo-controlled, parallel-group field study was performed in accordance with Good Clinical Practice standards ([16]). The study aimed to confirm the safety and efficacy of enflicoxib treatment of pain and inflammation associated with naturally occurring canine OA in dogs of any breed and sex treated for 6 months. The protocol was approved by the regulatory authorities of both Portugal and Hungary. Written informed consent was obtained from all dog owners prior to enrolment of their dogs. Dogs remained under the care of their owners at home throughout the study.\nBefore enrolment, all dogs underwent a physical examination, and blood and urine samples were taken. After enrollment, dogs were randomized in a predefined enflicoxib:placebo ratio of 3:1. Enflicoxib was dosed orally at weekly intervals, with an initial dose of 8 mg/kg, followed by once-a-week maintenance doses of 4 mg/kg for a total of 26 weeks. Dogs in the enflicoxib group received Daxocox® tablets (Ecuphar/Animalcare group), while dogs in the placebo group received the same formulation without the active ingredient under the same posology (number of tablets and dosing interval). […] No positive control was included due to difficulties in maintaining blinding with products under different posology during the entire follow-up period.\nTwo blood samples for popPK analysis were collected from all animals enrolled in the study one on day 44(±2 days)/1.5 months, (similar to the last sample taken in the previous clinical studies), after clinical assessment of pain and lameness and prior to treatment administration and another one at the end of the study on day 189/6 months (±2 days), or individual premature study termination day. Day 189 corresponds to the trough concentration after the 27th weekly administration (PK sample taken at the end of the weekly dosing interval). Meanwhile, day 44 corresponds to a PK sample obtained 2 days after the 7th weekly administration. The veterinary practices had the necessary resources and adequate freezing equipment for the long-term storage of plasma samples. Blood samples were collected into potassium-3-ethylenediaminetetraacetic acid (K3EDTA) labeled tubes, which were immediately centrifuged at ~2,500g for 10 min (at +4 °C whenever possible) to obtain plasma. Once received, plasma was transferred into two labeled propylene tubes (aliquots 1 and 2). Each plasma aliquot was stored frozen at a nominal temperature of −20 (±2) °C until shipment to the Laboratory of analysis Welab Barcelona (Parc Científic de Barcelona, C/Baldiri Reixac 4-12, 08028, Barcelona). The maximum storage time for the samples was 376 days at nominally −20 °C/−80 °C. Considering the long-term stability of enflicoxib and its metabolite in dog plasma samples stored at −20 °C, which spans a minimum of 402 days, the stability of the study samples was guaranteed for the entire duration of the study. Samples were analyzed without information on the treatment allocation (laboratory-blinded study).\nEnflicoxib and pyrazol metabolite plasma levels were measured by a previously fully validated high-performance liquid chromatography (HPLC)-method coupled with tandem mass spectrometry (MS/MS) detection as described in Homedes et al. ([4])."}, "[2]": {"assay": "Maximum a posteriori Bayesian (MAPB) estimation of individual PK parameters in dogs with OA", "type": "in vivo", "description": "As a similar PK behavior between populations was concluded, the same popPK model could be used, and a Bayesian approach was used for the determination of individual enflicoxib and the pyrazol metabolite exposure in osteoarthritic animals.\nA maximum a posteriori Bayesian (MAPB) estimation using the post hoc subroutine in NONMEM was used to provide the individual PK parameters in osteoarthritic dogs.\nMAPB estimation applied likelihood maximization in the form of minimizing the objective function (minus 2 log likelihood), to estimate individual PK parameters of each dog with OA. In this analysis, the MAPB estimation incorporated both a priori PK information, that is, the established PK model of enflicoxib and the pyrazol metabolite in healthy Beagle dogs, and a posteriori PK data, which corresponds to PK data from osteoarthritic dogs. The individual PK parameters along with individual predicted PK profiles for each dog treated with enflicoxib were calculated by fitting the animal PK dataset, which includes dosing, sampling times, parent and metabolite levels, and covariate information, to the established population enflicoxib and the pyrazol metabolite PK model in healthy Beagle dogs.\nThe maximum a posteriori Bayesian (MAPB) estimation was applied to provide the most likely individual PK profile for each dog with OA, using the “POSTHOC” subroutine and $ESTIMATION command set to MAXEVAL=0 in NONMEM.\nIndividual PK parameters and individual PK profiles of enflicoxib and the pyrazol metabolite were estimated for each dog.\nFinally, the Bayesian approach enabled the estimation of the main individual PK parameters of enflicoxib and the pyrazol metabolite. Using these individual PK parameters, predicted profiles for each animal were estimated, allowing the calculation of the derived exposure parameters, such as Cmax, Cmin, AUCτ, and T1/2 in all treated dogs. The distribution and the mean estimates of enflicoxib and the pyrazol metabolite PK parameters at selected time points are depicted in Supplementary Figures S3, S4, respectively."}, "[3]": {"tested_on": "dogs with OA", "assay": "Safety assessment in the field clinical study (hematology, biochemistry, urine, adverse events)", "type": "in vivo, client-owned dogs with OA", "conditions": "6 months weekly treatment", "description": "To assess safety, blood samples for hematology and biochemistry, as well as urine samples, were repeated on days 44 and 189. The following hematological and biochemical parameters were determined: red blood cell (RBC) count, white blood cell (WBC) total and differential count, platelet (thrombocyte) count and estimate, hematocrit, hemoglobin, and reticulocytes. Amylase, albumin, alkaline phosphatase, alanine-aminotransferase (ALT), aspartate-aminotransferase (AST), calcium, cholesterol, creatinine, creatine kinase, globulin, glucose, γ-Glutamyltransferase (γ-GT), magnesium, phosphorus, potassium, sodium, total bilirubin, total protein, and urea.\nUrine samples were analyzed for blood/erythrocytes/hemoglobin, glucose, ketone bodies, protein, leukocytes, nitrite, specific weight, pH value, bilirubin, and urobilinogen.\nSafety was also assessed by recording any adverse events (AEs) that occurred during the study, regardless of their nature, severity, or whether they were product-related or not."}, "[4]": {"set-up": "method as in PMID 34160092", "conditions": "cited from earlier work"}, "[5]": {"set-up": "method as in PMID 34160092", "conditions": "previously validated method, cited from earlier work"}, "[6]": {"conditions": "overdose study, repeated weekly administrations, Beagle dogs; cited from earlier work"}, "[7]": {"conditions": "mean across weeks, Bayesian predicted profiles"}}, "note": "Values joined by “and” are separate entries in the source; they are usually repeats but may differ in a detail not shown here. Identical values can stand only once. Like-named read-outs stand apart in the source and are kept apart here.", "data": [{"smiles": "NS(=O)(=O)c1ccc(N2N=C(C(F)(F)F)CC2c2ccc(F)cc2F)cc1", "note": "(centres unmarked) [Enflicoxib]", "values": [{"measurement": "Mean plasma level", "setting": "[1]; day 44 (2 days after 7th weekly administration), N=75", "result": "491.7 ng/mL and 492 ng/mL"}, {"measurement": "Max plasma level", "setting": "[1]; day 44, N=75", "result": "1,846.5 ng/mL"}, {"measurement": "Min plasma level", "setting": "[1]; day 44, N=75", "result": 5.0, "unit": "ng/mL"}, {"measurement": "Probability (%) concentration < 10 ng/mL", "setting": "[1]; day 44, N=75", "result": 13.3, "unit": "%"}, {"measurement": "Probability (%) concentration < LOQ", "setting": "[1]; day 44, N=75", "result": 9.3, "unit": "%"}, {"measurement": "Probability (%) concentration < 10 ng/mL", "setting": "[1]; day 44, N=75, listed as enflicoxib", "result": 13, "unit": "%"}, {"measurement": "Mean plasma level", "setting": "[1]; day 93 (premature study termination), N=2", "result": 296.8, "unit": "ng/mL"}, {"measurement": "Max plasma level", "setting": "[1]; day 93, N=2", "result": 356.0, "unit": "ng/mL"}, {"measurement": "Min plasma level", "setting": "[1]; day 93, N=2", "result": 237.7, "unit": "ng/mL"}, {"measurement": "Probability (%) concentration < 10 ng/mL", "setting": "[1]; day 93, N=2", "result": 0.0, "unit": "%"}, {"measurement": "Probability (%) concentration < LOQ", "setting": "[1]; day 93, N=2", "result": 0.0, "unit": "%"}, {"measurement": "Mean plasma level", "setting": "[1]; day 189 (trough after 27th weekly administration), N=65", "result": 262.5, "unit": "ng/mL"}, {"measurement": "Mean plasma level", "setting": "[1]; day 189 (trough after 27th weekly administration), N=65, listed as enflicoxib", "result": 263, "unit": "ng/mL"}, {"measurement": "Max plasma level", "setting": "[1]; day 189, N=65", "result": "1,846.3 ng/mL"}, {"measurement": "Min plasma level", "setting": "[1]; day 189, N=65", "result": 5.0, "unit": "ng/mL"}, {"measurement": "Probability (%) concentration < 10 ng/mL", "setting": "[1]; day 189, N=65", "result": 27.7, "unit": "%"}, {"measurement": "Probability (%) concentration < LOQ", "setting": "[1]; day 189, N=65", "result": 27.7, "unit": "%"}, {"measurement": "Probability (%) concentration < 10 ng/mL", "setting": "[1]; day 189, N=65, listed as enflicoxib", "result": 28, "unit": "%"}, {"measurement": "Time-dependent pharmacokinetics or over-accumulation", "setting": "[2]; 6 months of weekly treatment", "result": "no evidence of time-dependent pharmacokinetics or over-accumulation"}, {"measurement": "AUCτ", "setting": "[2]; [7]", "result": "3,810 ng/mL·d"}, {"measurement": "Cmin", "setting": "[2]; [7]", "result": "~ 185 ng/mL"}, {"measurement": "Cmax", "setting": "[2]; mean, all weeks of weekly treatment, Bayesian predicted profiles", "result": "≈ 1,173 ng/mL"}, {"measurement": "Time to PK steady-state", "setting": "[2]; weekly treatment", "result": 4, "unit": "weeks"}, {"measurement": "Incidence and type of adverse events over time", "setting": "[3]", "result": "no tendency to increase over time"}, {"measurement": "Hematological and biochemical parameters", "setting": "[3]; days 44 and 189", "result": "generally within the reference ranges"}, {"measurement": "mean terminal elimination half-life (t 1/2)", "setting": "[4]; Beagle dogs, oral", "result": 20, "unit": "h"}, {"measurement": "Effect of food on absorption", "setting": "[4]", "result": "food increases absorption"}, {"measurement": "Stability in dog plasma", "setting": "[5]; following 4 freeze–thaw cycles", "result": "stable"}, {"measurement": "Stability in dog plasma", "setting": "[5]; nominally −20 °C for 402 days", "result": "stable"}, {"measurement": "Stability in dog plasma", "setting": "[5]; room temperature for 4 h", "result": "stable"}, {"measurement": "Long-term stability in dog plasma samples", "setting": "[5]; stored at −20 °C", "result": "≥ 402", "unit": "days"}, {"measurement": "Dose proportionality of pharmacokinetics", "setting": "[6]", "result": "dose-proportional pharmacokinetics"}]}]}
